Laboratory results taken from PubChem BioAssay AID248 (DTP/NCI, 2004).
Inconclusive results and toxic doses are left out. Cut-off read from the data, not from the text of the source: active = T/C of 150% or more; inactive = T/C below 125%.

Tested on: L1210 leukemia ip in BDF1 mice, survival T/C
Experiment: NCI In Vivo Anticancer Drug Screen. Data for tumor model L1210 Leukemia (intraperitoneal) in B6D2F1 (BDF1) mice
Details: endpoint: mean survival time, higher = longer survival
Method in brief: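 Transplanted-tumor mice were given test agent; controls received vehicle only. Survival readings from the two groups were divided (treated over control).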

[1] = dose: 100.0 mg/kg/injection, schedule: Q01DX009 (ip), vehicle: Klucel (hydroxypropylcellulose) (HPC)
[2] = dose: 100.0 mg/kg/injection, schedule: Q04DX003 (ip), vehicle: saline
[3] = dose: 200.0 mg/kg/injection, schedule: Q01DX009 (ip), vehicle: Klucel (hydroxypropylcellulose) (HPC)
[4] = dose: 200.0 mg/kg/injection, schedule: Q04DX003 (ip), vehicle: saline
[5] = dose: 400.0 mg/kg/injection, schedule: Q01DX009 (ip), vehicle: Klucel (hydroxypropylcellulose) (HPC)
[6] = dose: 400.0 mg/kg/injection, schedule: Q04DX003 (ip), vehicle: saline
[7] = dose: 50.0 mg/kg/injection, schedule: Q01DX001 (ip), vehicle: carboxymethylcellulose (CMC)
[8] = dose: 100.0 mg/kg/injection, schedule: Q04DX003 (ip), vehicle: Klucel (hydroxypropylcellulose) (HPC)
[9] = dose: 200.0 mg/kg/injection, schedule: Q04DX003 (ip), vehicle: Klucel (hydroxypropylcellulose) (HPC)
[10] = dose: 400.0 mg/kg/injection, schedule: Q04DX003 (ip), vehicle: Klucel (hydroxypropylcellulose) (HPC)
[11] = dose: 100.0 mg/kg/injection, schedule: Q01DX001 (ip), vehicle: carboxymethylcellulose (CMC)
[12] = dose: 200.0 mg/kg/injection, schedule: Q01DX001 (ip), vehicle: carboxymethylcellulose (CMC)
[13] = dose: 400.0 mg/kg/injection, schedule: Q01DX001 (ip), vehicle: carboxymethylcellulose (CMC)
[14] = dose: 100.0 mg/kg/injection, schedule: Q04DX002 (ip), vehicle: saline with Tween-80
[15] = dose: 200.0 mg/kg/injection, schedule: Q04DX002 (ip), vehicle: saline with Tween-80
[16] = dose: 400.0 mg/kg/injection, schedule: Q04DX002 (ip), vehicle: saline with Tween-80
[17] = dose: 100.0 mg/kg/injection, schedule: Q01DX001 (ip), vehicle: saline
[18] = dose: 200.0 mg/kg/injection, schedule: Q01DX001 (ip), vehicle: saline
[19] = dose: 400.0 mg/kg/injection, schedule: Q01DX001 (ip), vehicle: saline
[20] = dose: 50.0 mg/kg/injection, schedule: Q01DX001 (ip), vehicle: saline
[21] = dose: 50.0 mg/kg/injection, schedule: Q01DX009 (ip), vehicle: saline with Tween-80
[22] = dose: 100.0 mg/kg/injection, schedule: Q01DX009 (ip), vehicle: saline with Tween-80
[23] = dose: 200.0 mg/kg/injection, schedule: Q01DX009 (ip), vehicle: saline with Tween-80

Measured: T/C

CCN(CC)C1=C(Cl)C(=O)C(=O)c2cccnc21
inactive: dose: 18.8 mg/kg/injection, schedule: Q04DX003 (ip), vehicle: saline 97 % of control | dose: 37.5 mg/kg/injection, schedule: Q04DX003 (ip), vehicle: saline 103 % of control | dose: 75.0 mg/kg/injection, schedule: Q01DX001 (ip), vehicle: saline 97 % of control

O=C(Nc1cc(C(F)(F)F)ccc1Cl)c1ccc(Cl)cc1
inactive: [1] 110 % of control | [2] 103 % of control | [3] 94 % of control | [4] 114 % of control | [5] 94 % of control | [6] 106 % of control

CC(C)(C)C1CCC(N)CC1 (stereo unspecified)
inactive: dose: 12.5 mg/kg/injection, schedule: Q01DX001 (ip), vehicle: carboxymethylcellulose (CMC) 104 % of control | dose: 25.0 mg/kg/injection, schedule: Q01DX001 (ip), vehicle: carboxymethylcellulose (CMC) 98 % of control | [7] 104 % of control

CN(C)c1ccc(C=Nc2ccc(Cl)cc2)cc1
inactive: dose: 100.0 mg/kg/injection, schedule: Q01DX001 (ip), vehicle: Klucel (hydroxypropylcellulose) (HPC) 91 % of control | [8] 93 % of control | dose: 200.0 mg/kg/injection, schedule: Q01DX001 (ip), vehicle: Klucel (hydroxypropylcellulose) (HPC) 93 % of control | [9] 91 % of control | dose: 400.0 mg/kg/injection, schedule: Q01DX001 (ip), vehicle: Klucel (hydroxypropylcellulose) (HPC) 90 % of control | [10] 91 % of control

Cc1cc(C)c(OC2=C(c3c(C)cc(C)cc3C)C(=O)c3ccccc32)c(C)c1
inactive: [11] 91 % of control | [12] 89 % of control | [13] 96 % of control

O=C(Nc1cc(C(F)(F)F)ccc1Cl)c1ccccc1F
inactive: [14] 102 % of control | [15] 102 % of control | [16] 108 % of control

CC(CCCCCOC(=O)Nc1ccccc1)OC(=O)Nc1ccccc1 (stereo unspecified)
inactive: dose: 100.0 mg/kg/injection, schedule: Q01DX001 (ip), vehicle: other 98 % of control | dose: 200.0 mg/kg/injection, schedule: Q01DX001 (ip), vehicle: other 87 % of control | dose: 400.0 mg/kg/injection, schedule: Q01DX001 (ip), vehicle: other 96 % of control

COC(=O)C(Nc1ccc([N+](=O)[O-])cc1[N+](=O)[O-])C(C)OS(=O)(=O)c1ccc(C)cc1 (stereo unspecified)
inactive: [17] 95 % of control | [18] 93 % of control | [19] 92 % of control

Oc1c(Cl)cc(Cl)c(Cl)c1Cc1c(O)c(Cl)cc(Cl)c1Cl
inactive: dose: 12.5 mg/kg/injection, schedule: Q04DX003 (ip), vehicle: Klucel (hydroxypropylcellulose) (HPC) 109 % of control | dose: 25.0 mg/kg/injection, schedule: Q04DX003 (ip), vehicle: Klucel (hydroxypropylcellulose) (HPC) 100 % of control | dose: 50.0 mg/kg/injection, schedule: Q04DX003 (ip), vehicle: Klucel (hydroxypropylcellulose) (HPC) 98 % of control

O=C(CCCO)NCCS(=O)c1ccccc1 (stereo unspecified)
inactive: [14] 107 % of control | [15] 101 % of control | [16] 111 % of control

Cc1ccccc1S(=O)(=O)/C(=C(/I)c1ccccc1)c1ccccc1
inactive: [17] 90 % of control | [18] 92 % of control | [19] 95 % of control

Nc1nc2ncn(C3OC(CO)C(O)C3O)c2c(=O)[nH]1 (stereo unspecified)
inactive: [17] 105 % of control | [18] 104 % of control | [19] 104 % of control

CC1CN1P(=O)(N1CC=CCC1)N1CC1C (stereo unspecified)
inactive: [20] 109 % of control | [17] 120 % of control | [18] 101 % of control | [19] 91 % of control

NC(=NCCCC(NC(=O)OCc1ccccc1)C(=O)NC1C(CO)OC(n2cnc3c(N)ncnc32)C1O)N[N+](=O)[O-] (stereo unspecified)
inactive: [20] 90 % of control | [17] 95 % of control | [18] 93 % of control

ClCCCCOCBr
inactive: [21] 97 % of control | [22] 104 % of control | [23] 95 % of control

O=[N+]([O-])c1ccc(C=Nc2ccccc2-c2ccccc2)s1
inactive: [8] 98 % of control | [9] 98 % of control | [10] 95 % of control

BrCC(Br)CBr
inactive: [21] 94 % of control | [22] 91 % of control | dose: 100.0 mg/kg/injection, schedule: Q04DX003 (ip), vehicle: saline with Tween-80 94 % of control | [23] 98 % of control | dose: 200.0 mg/kg/injection, schedule: Q04DX003 (ip), vehicle: saline with Tween-80 102 % of control

Cc1cccnc1C
inactive: dose: 10.0 mg/kg/injection, schedule: Q01DX009 (ip), vehicle: saline 105 % of control | dose: 20.0 mg/kg/injection, schedule: Q01DX009 (ip), vehicle: saline 111 % of control | dose: 30.0 mg/kg/injection, schedule: Q01DX009 (ip), vehicle: saline 115 % of control | dose: 40.0 mg/kg/injection, schedule: Q04DX003 (ip), vehicle: saline 112 % of control | dose: 80.0 mg/kg/injection, schedule: Q04DX003 (ip), vehicle: saline 107 % of control | [2] 100 % of control

CC(N)C(=O)NC(C(=O)O)C(C)O (stereo unspecified)
inactive: dose: 25.0 mg/kg/injection, schedule: Q04DX002 (ip), vehicle: saline 98 % of control | dose: 50.0 mg/kg/injection, schedule: Q04DX002 (ip), vehicle: saline 121 % of control | dose: 100.0 mg/kg/injection, schedule: Q04DX002 (ip), vehicle: saline 113 % of control

Cc1nc(SCc2ccc(Cl)cc2)[nH]c(=O)c1CC(C)O (stereo unspecified)
inactive: [2] 97 % of control | [4] 89 % of control | [6] 89 % of control

CCCCCCCCCCCCCCCC(=O)Nc1cccc(C)c1C
inactive: [14] 93 % of control | [15] 86 % of control

CC1(C)N=C(c2ccccc2)C(c2ccccc2)=N1
inactive: [1] 105 % of control | [8] 108 % of control | [3] 98 % of control | [9] 97 % of control | [10] 115 % of control

[N-]=[N+]=Nc1ccc2[nH]c3ccccc3c(=O)c2c1
inactive: dose: 50.0 mg/kg/injection, schedule: Q01DX009 (ip), vehicle: saline 90 % of control | dose: 100.0 mg/kg/injection, schedule: Q01DX009 (ip), vehicle: saline 93 % of control | dose: 100.0 mg/kg/injection, schedule: Q04DX003 (ip), vehicle: acetone 92 % of control | dose: 200.0 mg/kg/injection, schedule: Q01DX009 (ip), vehicle: saline 95 % of control | dose: 200.0 mg/kg/injection, schedule: Q04DX003 (ip), vehicle: acetone 97 % of control | dose: 400.0 mg/kg/injection, schedule: Q04DX003 (ip), vehicle: acetone 97 % of control

OC1C2C=CC(C2)C1O (stereo unspecified)
inactive: dose: 44.0 mg/kg/injection, schedule: Q01DX001 (ip), vehicle: saline 96 % of control | dose: 66.0 mg/kg/injection, schedule: Q01DX001 (ip), vehicle: saline 100 % of control | dose: 150.0 mg/kg/injection, schedule: Q01DX001 (ip), vehicle: saline 94 % of control | [18] 106 % of control | [19] 100 % of control

Cc1ccccc1NC(=O)NCCc1ccccc1
inactive: [1] 93 % of control | [8] 88 % of control | [3] 91 % of control | [9] 93 % of control | [5] 98 % of control | [10] 90 % of control

O=C(OCCNC(=O)N1CCOCC1)OCCNC(=O)N1CCOCC1
inactive: [2] 100 % of control | [4] 100 % of control | [6] 106 % of control

Cc1nc2c(c(=O)[nH]1)OCN(Cc1ccccc1)C2
inactive: [7] 96 % of control | [11] 98 % of control | [12] 98 % of control | [13] 98 % of control

CCOC(CCc1c(-c2ccccc2)nc(N)[nH]c1=O)OCC
inactive: dose: 100.0 mg/kg/injection, schedule: Q01DX009 (ip), vehicle: other 110 % of control | dose: 200.0 mg/kg/injection, schedule: Q01DX009 (ip), vehicle: other 102 % of control | dose: 400.0 mg/kg/injection, schedule: Q01DX009 (ip), vehicle: other 93 % of control
